Test results published in ChEMBL document CHEMBL3407424, “Synthesis and evaluation of new α-methylene-γ-lactone carbamates with NO production inhibitory effects in lipopolysaccharide-induced RAW 264.7 macrophages” (Eur J Med Chem, 2015).

Legend:
[1] = Cytotoxicity against mouse RAW264.7 cells after 18 hrs by MTT assay; assay type: cell-based
RAW264.7 [2] = test: Antiinflammatory activity against mouse RAW264.7 cells assessed as inhibition of LPS-induced NO production incubated for 30 mins by microplate reader analysis; assay type: functional, cell-based; conditions: RAW264.7, 0.5 h
RAW264.7 [3] = test: Antiinflammatory activity against mouse RAW264.7 cells assessed as inhibition of LPS-induced NO production at 25 uM incubated for 30 mins by microplate reader analysis; assay type: functional; conditions: RAW264.7, 0.5 h

IC50 (RAW264.7 [2])	SMILES	CC50 at 18 h [1]	inhibition at 25 µM (RAW264.7 [3])
1.07 µM	C=C1C(=O)OC[C@@H]1CCOC(=O)Nc1ccc(Cl)cc1	10.3 µM	> 94%
0.43 µM	C=C1C(=O)OC[C@H]1CCOC(=O)Nc1ccc(C(=O)OCCCC)cc1	8.94 µM	> 94%
0.7 µM	C=C1C(=O)OC[C@@H]1CCOC(=O)Nc1ccc(F)cc1F	14.8 µM	> 94%
0.86 µM	C=C1C(=O)OC[C@@H]1CCOC(=O)Nc1ccc(C(=O)OCCCC)cc1	12.7 µM	> 94%
0.96 µM	C=C1C(=O)OC[C@H]1CCOC(=O)Nc1cc(C(F)(F)F)cc(C(F)(F)F)c1	13.9 µM	> 94%
0.35 µM	C=C1C(=O)OC[C@H]1CCOC(=O)Nc1ccccc1F	17.4 µM	> 94%
0.8 µM	C=C1C(=O)OC[C@@H]1CCOC(=O)Nc1cc(C(F)(F)F)cc(C(F)(F)F)c1	12.4 µM	> 94%
1.09 µM	C=C1C(=O)OC[C@@H]1CCOC(=O)Nc1ccc(OC)cc1	11.9 µM	> 94%
0.59 µM	C=C1C(=O)OC[C@H]1CCOC(=O)Nc1cccc(Br)c1	21.8 µM	> 94%
0.39 µM	C=C1C(=O)OC[C@H]1CCOC(=O)Nc1ccc(Cl)cc1	9.14 µM	> 94%
0.49 µM	C=C1C(=O)OC[C@H]1CCOC(=O)Nc1ccc(I)cc1	12.8 µM	> 94%
0.78 µM	C=C1C(=O)OC[C@@H]1CCOC(=O)Nc1ccccc1	22.3 µM	> 94%
0.35 µM	C=C1C(=O)OC[C@H]1CCOC(=O)Nc1ccc(Br)cc1	8.47 µM	> 94%
0.84 µM	C=C1C(=O)OC[C@@H]1CCOC(=O)Nc1cccc(Br)c1	17.7 µM	> 94%
0.39 µM	C=C1C(=O)OC[C@H]1CCOC(=O)Nc1ccccc1	14.8 µM	> 94%
0.62 µM	C=C1C(=O)OC[C@H]1CCOC(=O)Nc1ccc(CCCC)cc1	15.9 µM	> 94%

IC50 (RAW264.7 [2])	SMILES	CC50 at 18 h [1]	inhibition at 25 µM (RAW264.7 [3])
1.58 µM	C=C1C(=O)OC[C@@H]1CCOC(=O)Nc1ccc(C(C)C)cc1	15.3 µM	> 94%
0.34 µM	C=C1C(=O)OC[C@H]1CCOC(=O)Nc1ccc(C(C)C)cc1	12.4 µM	> 94%
1.26 µM	C=C1C(=O)OC[C@@H]1CCOC(=O)Nc1ccc(CC)cc1	7.58 µM	> 94%
1.24 µM	C=C1C(=O)OC[C@@H]1CCOC(=O)Nc1cc(C)cc(C)c1	13.6 µM	> 94%
0.69 µM	C=C1C(=O)OC[C@@H]1CCOC(=O)Nc1ccccc1F	24.2 µM	> 94%
5.98 µM	C=C1C(=O)OC[C@@H]1CCOC(=O)Nc1c(C)cccc1C(C)C	> 50 µM	39.5%
1.94 µM	C=C1C(=O)OC[C@H]1CCOC(=O)Nc1c(C)cccc1C(C)C	22.2 µM	80.7%
0.33 µM	C=C1C(=O)OC[C@H]1CCOC(=O)Nc1ccc(F)cc1F	24.5 µM	> 94%
1.09 µM	C=C1C(=O)OC[C@H]1CCOC(=O)Nc1ccc(C)c(C)c1	18.2 µM	> 94%
0.84 µM	C=C1C(=O)OC[C@H]1CCOC(=O)Nc1ccc(CC)cc1	11.3 µM	> 94%
0.48 µM	C=C1C(=O)OC[C@H]1CCOC(=O)Nc1cc(C)cc(C)c1	12.7 µM	> 94%
0.79 µM	C=C1C(=O)OC[C@@H]1CCOC(=O)Nc1ccc(I)cc1	12.5 µM	> 94%
1.45 µM	C=C1C(=O)OC[C@@H]1CCOC(=O)Nc1ccc(C)c(C)c1	13.7 µM	> 94%
1.23 µM	C=C1C(=O)OC[C@@H]1CCOC(=O)Nc1ccc(CCCC)cc1	9.95 µM	> 94%
0.72 µM	C=C1C(=O)OC[C@@H]1CCOC(=O)Nc1ccc(Br)cc1	19.8 µM	> 94%
0.71 µM	C=C1C(=O)OC[C@H]1CCOC(=O)Nc1ccc(OC)cc1	12.4 µM	> 94%

SMILES	IC50 (RAW264.7 [2])	CC50 at 18 h [1]	inhibition at 25 µM (RAW264.7 [3])
N=C(N)NN [PIMAGEDINE]	7.29 µM		
